Source: patent US20040102325A1, “Phenylpropynyloxypyridine herbicides” (priority 2000, published 2004)

What was measured:
Format in all cases: in vivo
Stellaria [1] = test: Post-emergence herbicidal action, Stellaria; parameters: key: 1=total damage; 9=no action; settings: post-emergence (2- to 3-leaf stage), 1000 g a.i/ha, 2 to 3 weeks, scale of nine ratings (1=total damage, 9=no action)
Method: (§1) Monocotyledonous and dicotyledonous test plants are sown in standard soil in pots, and at the 2- to 3-leaf stage are sprayed with an aqueous suspension of the test compounds (prepared from a wettable powder (Example F3, b) according to WO 97/34485) or with an emulsion of the test compounds (prepared from an emulsifiable concentrate (Example F1, c) according to WO 97/34485) at an optimum rate of application of 500 litres of water/ha). The test plants are then grown on in the greenhouse under optimum conditions. After a test duration of 2 to 3 weeks, the test is evaluated in accordance with a scale of nine ratings (1=total damage, 9=no action). Ratings of from 1 to 4 (especially from 1 to 3) indicate good to very good herbicidal action. Test plants: Panicum, Euphorbia, Sida, Amaranthus, Chenopodium, Stellaria, Veronica.

Stellaria [2] = test: Pre-emergence herbicidal action, Stellaria; parameters: key: 1=total damage; 9=no action; settings: 1000 g a.i./ha, 4 weeks, scale of nine ratings (1=total damage, 9=no action)
Source text: (§2) Monocotyledonous and dicotyledonous test plants are sown in standard soil in pots. Immediately after sowing, an aqueous suspension of the test compounds (prepared from a wettable powder (Example F3, b) according to WO 97/34485) or an emulsion of the test compounds (prepared from an emulsifiable concentrate (Example F1, c) according to WO 97/34485) is applied by spraying at an optimum rate of application (500 litres of water/ha). The test plants are then cultivated in a greenhouse under optimum conditions. After a test duration of 4 weeks, the test is evaluated in accordance with a scale of nine ratings (1=total damage, 9=no action). Ratings of from 1 to 4 (especially from 1 to 3) indicate good to very good herbicidal action. Test plants: Setaria, Panicum, Digitaria, Amaranthus, Stellaria, Veronica.

Amaranthus [3] = test: Pre-emergence herbicidal action, Amaranthus; parameters: key: 1=total damage; 9=no action; settings: 1000 g a.i./ha, 4 weeks, scale of nine ratings (1=total damage, 9=no action)
Source text: as §2

Veronica [4] = test: Post-emergence herbicidal action, Veronica; parameters: key: 1=total damage; 9=no action; settings: post-emergence (2- to 3-leaf stage), 1000 g a.i/ha, 2 to 3 weeks, scale of nine ratings (1=total damage, 9=no action)
Method: as §1

Setaria = test: Pre-emergence herbicidal action, Setaria; parameters: key: 1=total damage; 9=no action; settings: 1000 g a.i./ha, 4 weeks, scale of nine ratings (1=total damage, 9=no action)
Source text: as §2

Digitaria = test: Pre-emergence herbicidal action, Digitaria; parameters: key: 1=total damage; 9=no action; settings: 1000 g a.i./ha, 4 weeks, scale of nine ratings (1=total damage, 9=no action)
Source text: as §2

Chenopodium = test: Post-emergence herbicidal action, Chenopodium; parameters: key: 1=total damage; 9=no action; settings: post-emergence (2- to 3-leaf stage), 1000 g a.i/ha, 2 to 3 weeks, scale of nine ratings (1=total damage, 9=no action)
Method: as §1

Panicum [5] = test: Pre-emergence herbicidal action, Panicum; parameters: key: 1=total damage; 9=no action; settings: 1000 g a.i./ha, 4 weeks, scale of nine ratings (1=total damage, 9=no action)
Source text: as §2

Amaranthus [6] = test: Post-emergence herbicidal action, Amaranthus; parameters: key: 1=total damage; 9=no action; settings: post-emergence (2- to 3-leaf stage), 1000 g a.i/ha, 2 to 3 weeks, scale of nine ratings (1=total damage, 9=no action)
Method: as §1

Euphorbia = test: Post-emergence herbicidal action, Euphorbia; parameters: key: 1=total damage; 9=no action; settings: post-emergence (2- to 3-leaf stage), 1000 g a.i/ha, 2 to 3 weeks, scale of nine ratings (1=total damage, 9=no action)
Method: as §1

Veronica [7] = test: Pre-emergence herbicidal action, Veronica; parameters: key: 1=total damage; 9=no action; settings: 1000 g a.i./ha, 4 weeks, scale of nine ratings (1=total damage, 9=no action)
Source text: as §2

Panicum [8] = test: Post-emergence herbicidal action, Panicum; parameters: key: 1=total damage; 9=no action; settings: post-emergence (2- to 3-leaf stage), 1000 g a.i/ha, 2 to 3 weeks, scale of nine ratings (1=total damage, 9=no action)
Method: as §1

Sida = test: Post-emergence herbicidal action, Sida; settings: post-emergence (2- to 3-leaf stage), 1000 g a.i/ha, 2 to 3 weeks, scale of nine ratings (1=total damage, 9=no action)
Method: as §1

Row | Compound | Stellaria, herbicidal action rating (Stellaria [1]) | Stellaria, herbicidal action rating (Stellaria [2]) | Amaranthus, herbicidal action rating (Amaranthus [3]) | Veronica, herbicidal action rating (Veronica [4]) | Setaria, herbicidal action rating (Setaria) | Digitaria, herbicidal action rating (Digitaria) | Chenopodium, herbicidal action rating (Chenopodium) | Panicum, herbicidal action rating (Panicum [5]) | Amaranthus, herbicidal action rating (Amaranthus [6]) | Euphorbia, herbicidal action rating (Euphorbia) | Veronica, herbicidal action rating (Veronica [7]) | Panicum, herbicidal action rating (Panicum [8]) | Sida, herbicidal action rating (Sida)
1 | N#CCc1cccc(C#CCOc2ccc(Cl)cn2)c1 [1.007] | 6 | 1 | 1 | 1 | 5 | 1 | 1 | 1 | 1 | 2 | 7 | 2 | 4
2 | N#CCc1cccc(C#CCOc2ccc(Br)cn2)c1 [1.008] | 4 | 4 | 1 | 2 | 7 | 1 | 1 | 1 | 1 | 2 | 1 | 7 | 3
3 | N#CCc1cccc(C#CCOc2ncc(F)cc2F)c1 [1.009] | 2 | 3 | 2 | 2 | – | 1 | 1 | – | 1 | 1 | – | 2 | 2
4 | N#CCc1cccc(C#CCOc2ncc(Cl)cc2F)c1 [1.011] | 2 | 1 | 1 | 2 | 6 | 1 | 1 | 1 | 2 | 2 | 1 | 2 | 2
5 | COc1cc(F)cnc1OCC#Cc1cccc(CC#N)c1 [1.015] | 1 | 1 | 1 | 2 | 7 | 2 | 1 | 2 | 1 | 1 | 4 | 1 | 3
6 | COc1cc(Cl)cnc1OCC#Cc1cccc(CC#N)c1 [1.016] | 1 | 1 | 1 | 1 | 4 | 1 | 1 | 2 | 1 | 1 | 1 | 2 | 2
7 | COc1cc(Br)cnc1OCC#Cc1cccc(CC#N)c1 [1.017] | 1 | 1 | 1 | 2 | 5 | 2 | 1 | 2 | 2 | 1 | 2 | 4 | 2
8 | COc1cc(C)cnc1OCC#Cc1cccc(CC#N)c1 [1.022] | 4 | 2 | 1 | 3 | – | – | 3 | 2 | 3 | 2 | 1 | 6 | 3
9 | Cc1ccc(OC(F)F)c(OCC#Cc2cccc(CC#N)c2)n1 [1.024] | 1 | 1 | 1 | 3 | 1 | – | 1 | – | 1 | 2 | 1 | – | 2
10 | N#CCc1cccc(C#CCOc2ncc(Cl)cc2OC(F)F)c1 [1.025] | 4 | 1 | 1 | 4 | 1 | 2 | 7 | 1 | 2 | 2 | 1 | – | 3
11 | CSc1cccnc1OCC#Cc1cccc(CC#N)c1 [1.047] | 1 | 1 | 1 | 3 | 1 | 1 | 1 | 2 | 2 | 1 | 4 | 4 | 3
12 | COc1cc(Cl)cnc1OCC#Cc1ccccc1 [1.094] | 2 | 1 | 3 | 3 | – | – | 3 | – | 1 | 1 | 1 | 2 | 2
